Measurements from patent US12485169B2, “Compounds” (GREY WOLF THERAPEUTICS LIMITED, priority 2018, dated 2025).

biological target: T1, Purified ERAP1 (37-941)-10His (ERAP1) (Homo sapiens, UniProt Q9NZ08); assay: ERAP1 mediated hydrolysis of an amide substrate (10-mer inhibition assay), biochemical system; details: 10-mer substrate, 23° C., 1 h, excitation 279 nm / emission 355 nm; read-out: IC50 vs Decapeptide WRVYEKC(Dnp)ALK-acid (where Dnp is Dinitrophenyl maleimide) (10-mer)
T1 construct: Purified ERAP1 (37-941)-10His (ERAP1)
T1 sequence (Q9NZ08 37-941): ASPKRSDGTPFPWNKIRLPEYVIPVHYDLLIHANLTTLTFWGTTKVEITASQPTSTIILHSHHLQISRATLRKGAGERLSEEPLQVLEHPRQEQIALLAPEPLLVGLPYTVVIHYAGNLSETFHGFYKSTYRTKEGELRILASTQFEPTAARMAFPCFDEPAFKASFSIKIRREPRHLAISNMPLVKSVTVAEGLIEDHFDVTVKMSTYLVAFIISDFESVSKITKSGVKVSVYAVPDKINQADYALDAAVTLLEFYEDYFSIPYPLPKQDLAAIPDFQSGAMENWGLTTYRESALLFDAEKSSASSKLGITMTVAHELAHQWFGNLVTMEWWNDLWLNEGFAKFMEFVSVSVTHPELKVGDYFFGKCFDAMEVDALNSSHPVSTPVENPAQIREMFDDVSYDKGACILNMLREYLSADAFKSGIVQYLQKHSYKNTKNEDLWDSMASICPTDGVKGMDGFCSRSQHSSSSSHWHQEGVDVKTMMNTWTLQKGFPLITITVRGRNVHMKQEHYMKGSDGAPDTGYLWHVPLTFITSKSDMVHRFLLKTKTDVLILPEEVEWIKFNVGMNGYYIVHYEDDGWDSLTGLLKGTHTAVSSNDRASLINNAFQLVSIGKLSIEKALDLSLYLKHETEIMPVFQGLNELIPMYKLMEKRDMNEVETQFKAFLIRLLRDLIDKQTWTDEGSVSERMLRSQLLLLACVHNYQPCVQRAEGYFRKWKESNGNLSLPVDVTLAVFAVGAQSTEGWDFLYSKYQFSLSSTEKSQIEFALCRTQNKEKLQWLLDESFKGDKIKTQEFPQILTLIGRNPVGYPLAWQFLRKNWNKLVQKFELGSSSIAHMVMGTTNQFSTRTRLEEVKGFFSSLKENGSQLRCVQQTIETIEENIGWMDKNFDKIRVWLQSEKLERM

Row | Structure (SMILES) | IC50 [nM]
1 | N#Cc1ccc(N2CCCC(F)(F)C2)c(NS(=O)(=O)c2cc(C(=O)O)ccc2C2CC2)c1 [Example 316, 3-(N-(5-cyano-2-(3,3-difluoropiperidin-1-yl)phenyl)sulfamoyl)-4-cyclopropylbenzoic acid] | < 500
2 | CCc1ccc(C(=O)O)cc1S(=O)(=O)Nc1cc(S(C)(=O)=O)ccc1N1CCC(F)CC1 [Example 317, 4-ethyl-3-(N-(2-(4-fluoropiperidin-1-yl)-5-(methylsulfonyl)phenyl)sulfamoyl)benzoic acid] | < 500
3 | CCc1ccc(C(=O)O)cc1S(=O)(=O)Nc1cc(C#N)ccc1N1CCC(F)CC1 [Example 318, 3-(N-(5-cyano-2-(4-fluoropiperidin-1-yl)phenyl)sulfamoyl)-4-ethylbenzoic acid] | < 500
4 | CS(=O)(=O)c1ccc(N2CCC(F)CC2)c(NS(=O)(=O)c2cc(C(=O)O)ccc2C2CC2)c1 [Example 320, 4-cyclopropyl-3-(N-(2-(4-fluoropiperidin-1-yl)-5-(methylsulfonyl)phenyl)sulfamoyl)benzoic acid] | < 500
5 | N#Cc1ccc(N2CCC(F)CC2)c(NS(=O)(=O)c2cc(C(=O)O)ccc2C2CC2)c1 [Example 322, 3-(N-(5-cyano-2-(4-fluoropiperidin-1-yl)phenyl)sulfamoyl)-4-cyclopropylbenzoic acid] | < 500
6 | O=C(O)c1ccc(C2CC2)c(S(=O)(=O)Nc2cc(-n3cnnn3)ccc2N2CCCCC2)c1 [Example 323, 4-cyclopropyl-3-(N-(2-(piperidin-1-yl)-5-(tetrazol-1-yl)phenyl)sulfamoyl)benzoic acid] | < 500
7 | N#Cc1cc(NS(=O)(=O)c2cc(C(=O)O)ccc2C2CC2)c(N2CCCCC2)cc1Cl [Example 327, 3-(N-(4-chloro-5-cyano-2-(piperidin-1-yl)phenyl)sulfamoyl)-4-cyclopropylbenzoic acid] | < 500
8 | C[C@@H]1C[C@H](C)CN(c2ccc(C#N)cc2NS(=O)(=O)c2cc(C(=O)O)ccc2C2CC2)C1 [Example 328, 3-(N-(5-cyano-2-(cis-3,5-dimethylpiperidin-1-yl)phenyl)sulfamoyl)-4-cyclopropylbenzoic acid] | < 500
9 | NS(=O)(=O)c1ccc(N2CCCCC2)c(NS(=O)(=O)c2cc(C(=O)O)ccc2C2CC2)c1 [Example 329, 4-cyclopropyl-3-(N-(2-(piperidin-1-yl)-5-sulfamoylphenyl)sulfamoyl)benzoic acid] | < 500

Results, then the compound that gave them:

Row | IC50 [nM] | Structure (SMILES)
10 | < 500 | N#CC1CCN(c2ccc(C(F)(F)F)cc2NS(=O)(=O)c2cc(C(=O)O)ccc2C2CC2)CC1 [Example 315, 3-(N-(2-(4-cyanopiperidin-1-yl)-5-(trifluoromethyl)phenyl)sulfamoyl)-4-cyclopropylbenzoic acid]
11 | < 500 | CS(=O)(=O)c1ccc(N2CCCC(F)(F)C2)c(NS(=O)(=O)c2cc(C(=O)O)ccc2C2CC2)c1 [Example 319, 4-cyclopropyl-3-(N-(2-(3,3-difluoropiperidin-1-yl)-5-(methylsulfonyl)phenyl)sulfamoyl)benzoic acid]
12 | < 500 | CS(=O)(=O)c1ccc(N2CCC[C@@H](F)C2)c(NS(=O)(=O)c2cc(C(=O)O)ccc2C2CC2)c1 [Example 321, I-4-cyclopropyl-3-(N-(2-(3-fluoropiperidin-1-yl)-5-(methylsulfonyl)phenyl)sulfamoyl)benzoic acid]
13 | < 500 | N#Cc1cc(NS(=O)(=O)c2cc(C(=O)O)ccc2C2CC2)c(N2CCCCC2)cc1F [Example 324, 3-(N-(5-cyano-4-fluoro-2-(piperidin-1-yl)phenyl)sulfamoyl)-4-cyclopropylbenzoic acid]
14 | < 500 | O=C(O)c1ccc(C2CC2)c(S(=O)(=O)Nc2cc(-n3cnnn3)ccc2N2CC(O)C2)c1 [Example 325, 4-cyclopropyl-3-(N-(2-(3-hydroxyazetidin-1-yl)-5-(tetrazol-1-yl)phenyl)sulfamoyl)benzoic acid]
15 | < 500 | N#Cc1ccc(N2CCC(C#N)CC2)c(NS(=O)(=O)c2cc(C(=O)O)ccc2C2CC2)c1 [Example 326, 3-(N-(5-cyano-2-(4-cyanopiperidin-1-yl)phenyl)sulfamoyl)-4-cyclopropylbenzoic acid]
